For five compounds, IC50 results are on record in patent US6784185B2, “Pharmaceutically active compounds” (Pfizer Inc., priority 2001, dated 2004).

The structures appear in SMILES notation.

The target in the test is T1, cGMP-specific PDE (PDE5) (Homo sapiens, UniProt O76074).
T1 construct: obtained from human corpus cavernosum tissue or human platelets; from tissue; host or cells: human corpus cavernosum tissue or human platelets
Briefly: In vitro PDE inhibitory activity, cGMP PDE5. The format is biochemical. Particulars: enzyme from human corpus cavernosum tissue or human platelets; low substrate such that IC50≅Ki. The procedure: The compounds of the present invention are potent and selective cGMP PDE5 inhibitors. In vitro PDE inhibitory activities against cyclic guanosine 3′,5′-monophosphate (cGMP) and cyclic adenosine 3′,5′-monophosphate (cAMP) phosphodiesterases were determined by measurement of their IC50 values (the concentration of compound required for 50% inhibition of enzyme activity).
The required PDE enzymes were isolated from a variety of sources, including human corpus cavernosum, human platelets, human cardiac ventricle, human skeletal muscle and human and canine retina, essentially by the method of W. J. Thompson and M. M. Appleman (Biochem., 1971, 10, 311). In particular, the cGMP-specific PDE (PDE5) and the cGMP-inhibited cAMP PDE (PDE3) were obtained from human corpus cavernosum tissue or human platelets; the cGMP-stimulated PDE (PDE2) was obtained from human corpus cavernosum or human platelets; the calcium/calmodulin (Ca/CAM)-dependent PDE (PDE1) from human cardiac ventricle; the cAMP-specific PDE (PDE4) from recombinant clone or human skeletal muscle; and the photoreceptor PDE (PDE6) from canine or human retina. Phosphodiesterases 7-11 were generated from full length human recombinant clones transfected into SF9 cells.
Assays were performed either using a modification of the “batch” method of W. J. Thompson et al. (Biochem., 1979, 18, 5228) or using a scintillation proximity assay for the direct detection of AMP/GMP using a modification of the protocol described by Amersham plc under product code TRKQ7090/7100. In summary, the effect of PDE inhibitors was investigated by assaying a fixed amount of enzyme in the presence of varying inhibitor concentrations and low substrate, (cGMP or cAMP in a 3:1 ratio unlabelled to [^3H]-labeled at a conc ˜1/2 Km) such that IC50≅Ki. The final assay volume was made up to 102 μl with assay buffer [20 mM Tris-HCl pH 7.4, 5 mM MgCl2, 1 mg/ml bovine serum albumin]. Reactions were initiated with enzyme, incubated for 30-60 min at 30° C. to give <30% substrate turnover and terminated with 50 μl yttrium silicate SPA beads (containing 3 mM of the respective unlabelled cyclic nucleotide for PDEs 3, 9 and 11). Plates were re-sealed and shaken for 20 min, after which the beads were allowed to settle for 30 min in the dark and then counted on a TopCount plate reader (Packard, Meriden, Conn.). Radioactivity units were converted to % activity of an uninhibited control (100%), plotted against inhibitor concentration and inhibitor IC50 values obtained using the ‘Fit Curve’ Microsoft Excel extension or in-house equivalent.
The compound `CCCOc1ccc(C(C)=O)cc1-c1nc2c(CC)n(CC(=O)N(C)C)nc2c(=O)[nH]1` [Example 13, 2-[5-(5-Acetyl-2-propoxyphenyl)-3-ethyl-7-oxo-6,7-dihydro-2H-pyrazolo[4,3-d]pyrimidin-2-yl]-N,N-dimethylacetamide] came in with an IC50 of 11.9 nM.
The figure for `CCc1c2nc(-c3cc(C(C)=O)ccc3OCC(C)C)[nH]c(=O)c2nn1C1CN(C2CCC2)C1` [Example 2] is 13.8 nM; for `CCCOc1ccc(C(C)=O)cc1-c1nc2c(CC)n(CC(=O)OC(C)(C)C)nc2c(=O)[nH]1` [Example 6] it is 2.2 nM.
Next, `CCCCOc1ccc(C(C)=O)cc1-c1nc2c(CC)n(C3CN(C(C)C)C3)nc2c(=O)[nH]1` [Example 3]: 23 nM; `CCCOc1ccc(C(C)=O)cc1-c1nc2c(CC)n(CCCC(=O)O)nc2c(=O)[nH]1` [Example 12, 4-[5-(5-Acetyl-2-propoxyphenyl)-3-ethyl-7-oxo-6,7-dihydro-2H-pyrazolo[4,3-d]pyrimidin-2-yl]butanoic Acid]: 1.8 nM.

As usually defined, the IC50 is the concentration needed to halve the response being measured. Read a high IC50 as a need for much substance.
